How the values were obtained:
B-Raf (V600E) = B-Raf (V600E) (Homo sapiens (Human), UniProt P15056, V600E); assay: Raf IC50 assay, time-resolved fluorescence energy transfer, B-Raf (V600E); type: biochemical; settings: 0.1 mM ATP; read-out: IC50 (nM) B_Raf^V600E
Description: The enzyme was incubated with the compounds at room temperature for 60 minutes and the reactions were initiated by the addition of ATP and GST-MEK1. After reaction at room temperature for 60 minutes, an equal volume of stop/detection solution was added according to the manufacture's instruction (CisBio Bioassays). […] The IC50 for each compound was derived from fitting the dose-response % inhibition data to the four-parameter logistic model by Graphpad Prism software.

A375 = assay: Anti-proliferative activity EC50 assay (CellTiter-Glo) in A375; type: cell-based; settings: Homo sapiens, A-375, 72 h; 3-day exposure; read-out: Cell Proliferation EC50 (nM) A375
Description: The growth-inhibitory activity of compounds in A375 and p61-A375, was determined using CellTiter-Glo luminescent cell viability assay (Promega). The 2,000 cells were seeded per well of a 96-well plate to ensure logarithmic growth could occur over the 3 days treatment period. Cells were left to attach for 16 hours, cells were treated in duplicate with a 10-point dilution series. Following a 3-day exposure to compounds disclosed herein, a volume of CellTiter-Glo reagent equal to the volume of cell culture medium present in each well was added. Mixture was mixed on an orbital shaker for 2 minutes to allow cell lysis, followed by 10 minutes incubation at room temperature to allow stabilization of luminescent signal, which corresponded to quantitation of ATP and thus the quantitation of metabolically active cells. Luminescent signal was measured using Pherastar FS reader (BMG Labtech).
EC50 values for growth inhibition were calculated by fitting dose-dependent data to the four-parameter logistic model using GraphPad Prism software.

B-Raf (V600E), sequence (P15056 whole entry V600E): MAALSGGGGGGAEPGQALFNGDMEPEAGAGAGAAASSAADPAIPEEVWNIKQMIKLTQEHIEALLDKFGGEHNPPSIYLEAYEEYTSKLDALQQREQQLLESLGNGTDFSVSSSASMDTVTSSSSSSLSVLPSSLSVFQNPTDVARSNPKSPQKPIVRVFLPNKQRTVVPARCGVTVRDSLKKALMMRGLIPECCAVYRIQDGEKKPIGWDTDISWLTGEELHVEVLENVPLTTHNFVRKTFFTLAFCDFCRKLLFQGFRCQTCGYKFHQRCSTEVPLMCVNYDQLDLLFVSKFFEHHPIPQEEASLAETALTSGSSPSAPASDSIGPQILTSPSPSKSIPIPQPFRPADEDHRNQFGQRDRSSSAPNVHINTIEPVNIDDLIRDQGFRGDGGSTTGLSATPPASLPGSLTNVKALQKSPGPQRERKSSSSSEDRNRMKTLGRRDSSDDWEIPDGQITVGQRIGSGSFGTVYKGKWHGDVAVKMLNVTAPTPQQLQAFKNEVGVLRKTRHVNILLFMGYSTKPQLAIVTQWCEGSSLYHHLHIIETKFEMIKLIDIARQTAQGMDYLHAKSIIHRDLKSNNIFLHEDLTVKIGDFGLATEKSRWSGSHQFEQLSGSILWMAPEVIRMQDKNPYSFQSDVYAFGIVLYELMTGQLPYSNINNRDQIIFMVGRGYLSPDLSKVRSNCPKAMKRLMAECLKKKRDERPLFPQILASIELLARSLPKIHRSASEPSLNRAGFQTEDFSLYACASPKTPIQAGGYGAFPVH

Row | Compound | IC50 (B-Raf (V600E)) | EC50 (A375)
1 | COc1ccc(NC(=O)N[C@@H]2[C@H]3Oc4ccc(Oc5ccnc6c5CCC(=O)N6)cc4[C@@H]23)c(Cl)c1 [Compound 1.4] | 1.8 nM | 
2 | COc1ccc(Cl)c(NC(=O)N[C@@H]2[C@H]3Oc4ccc(Oc5ccnc6c5CCC(=O)N6)cc4[C@@H]23)c1 [Compound 1.5] | 2.2 nM | 
3 | O=C1CCc2c(Oc3ccc4c(c3)[C@H]3[C@H](NC(=O)Nc5cc(Br)ccc5Cl)[C@H]3O4)ccnc2N1 [Compound 1.8] | 8.7 nM | 
4 | O=C1CCc2c(Oc3ccc4c(c3)[C@H]3[C@H](NC(=O)Nc5ccc(Br)cc5Cl)[C@H]3O4)ccnc2N1 [Compound 1.10] | 6.3 nM | 
5 | O=C1CCc2c(Oc3ccc4c(c3)[C@H]3[C@H](NC(=O)Nc5cccc([N+](=O)[O-])c5)[C@H]3O4)ccnc2N1 [Compound 1.13] | 1.8 nM | 
6 | COc1ccc(NC(=O)N[C@@H]2[C@H]3Oc4ccc(Oc5ccnc6c5CCC(=O)N6)cc4[C@@H]23)cc1OC [Compound 1.15] | 2.3 nM | 
7 | O=C1CCc2c(Oc3ccc4c(c3)[C@H]3[C@H](NC(=O)Nc5ccc6c(c5)CCC6)[C@H]3O4)ccnc2N1 [Compound 1.16] | 2.6 nM | 
8 | COc1cc(NC(=O)N[C@@H]2[C@H]3Oc4ccc(Oc5ccnc6c5CCC(=O)N6)cc4[C@@H]23)cc(OC)c1 [Compound 1.17] | 1.5 nM | 
9 | CC(C)(C)c1ccc(NC(=O)N[C@@H]2[C@H]3Oc4ccc(Oc5ccnc6c5CCC(=O)N6)cc4[C@@H]23)cc1 [Compound 1.18] | 16 nM | 
10 | Cc1cccc(Cl)c1NC(=O)N[C@@H]1[C@H]2Oc3ccc(Oc4ccnc5c4CCC(=O)N5)cc3[C@@H]12 [Compound 1.19] | 5.1 nM | 503 nM
11 | CN(C)Cc1ccc(NC(=O)N[C@@H]2[C@H]3Oc4ccc(Oc5ccnc6c5CCC(=O)N6)cc4[C@@H]23)cc1 [Compound 1.26] | 2680 nM | 
12 | COc1cc(NC(=O)N[C@@H]2[C@H]3Oc4ccc(Oc5ccnc6c5CCC(=O)N6)cc4[C@@H]23)c(Cl)cc1Cl [Compound 1.27] | 11 nM | 
13 | O=C1CCc2c(Oc3ccc4c(c3)[C@H]3[C@H](NC(=O)Nc5ccc(C(F)(F)F)cc5)[C@H]3O4)ccnc2N1 [Compound 1.29] | 6.9 nM | 222 nM
14 | O=C1CCc2c(Oc3ccc4c(c3)[C@H]3[C@H](NC(=O)Nc5ccccc5C(F)(F)F)[C@H]3O4)ccnc2N1 [Compound 1.30] | 3 nM | 583 nM
15 | O=C1CCc2c(Oc3ccc4c(c3)[C@H]3[C@H](NC(=O)Nc5ccncn5)[C@H]3O4)ccnc2N1 [Compound 1.36] | 1.3 nM | 
16 | O=C1CCc2c(Oc3ccc4c(c3)[C@H]3[C@H](NC(=O)Nc5cc(Cl)ccn5)[C@H]3O4)ccnc2N1 [Compound 1.37] | 0.85 nM | 
17 | O=C1CCc2c(Oc3ccc4c(c3)[C@H]3[C@H](NC(=O)Nc5ccc(C(F)(F)F)cn5)[C@H]3O4)ccnc2N1 [Compound 1.38] | 4 nM | 
18 | Cc1ccncc1NC(=O)N[C@@H]1[C@H]2Oc3ccc(Oc4ccnc5c4CCC(=O)N5)cc3[C@@H]12 [Compound 1.39] | 2.6 nM | 
19 | COc1ccc(NC(=O)N[C@@H]2[C@H]3Oc4ccc(Oc5ccnc6c5CCC(=O)N6)cc4[C@@H]23)cc1 [Compound 1.50] | 0.8 nM | 
20 | O=C1CCc2c(Oc3ccc4c(c3)[C@H]3[C@H](NC(=O)NC5CCCC5)[C@H]3O4)ccnc2N1 [Compound 1.51] | 0.59 nM | 273 nM
21 | O=C1CCc2c(Oc3ccc4c(c3)[C@H]3[C@H](NC(=O)NCc5cccc(C(F)(F)F)c5)[C@H]3O4)ccnc2N1 [Compound 1.54] | 1.9 nM | 2700 nM
22 | O=C1CCc2c(Oc3ccc4c(c3)[C@H]3[C@H](NC(=O)NCc5ccc(C(F)(F)F)cc5)[C@H]3O4)ccnc2N1 [Compound 1.56] | 158 nM | 
23 | O=C1CCc2c(Oc3ccc4c(c3)[C@H]3[C@H](NC(=O)NCc5cccc(F)c5)[C@H]3O4)ccnc2N1 [Compound 1.58] | 0.77 nM | 534 nM
24 | O=C1CCc2c(Oc3ccc4c(c3)[C@H]3[C@H](NC(=O)NCc5ccc(F)cc5)[C@H]3O4)ccnc2N1 [Compound 1.59] | 0.84 nM | 891 nM
25 | O=C1CCc2c(Oc3ccc4c(c3)[C@H]3[C@H](NC(=O)Nc5cccc(OC(F)(F)F)c5)[C@H]3O4)ccnc2N1 [Compound 1.60] | 8.6 nM | 193 nM
26 | O=C1CCc2c(Oc3ccc4c(c3)[C@H]3[C@H](NC(=O)Nc5ccc(OC(F)(F)F)cc5)[C@H]3O4)ccnc2N1 [Compound 1.61] | 7.4 nM | 975 nM

Row | Compound | IC50 (B-Raf (V600E)) | EC50 (A375)
27 | O=C1CCc2c(Oc3ccc4c(c3)[C@H]3[C@H](NC(=O)Nc5ccccc5OC(F)(F)F)[C@H]3O4)ccnc2N1 [Compound 1.62] | 6.3 nM | 302 nM
28 | CN1CCN(Cc2ccc(NC(=O)N[C@@H]3[C@H]4Oc5ccc(Oc6ccnc7c6CCC(=O)N7)cc5[C@@H]34)cc2)CC1 [Compound 1.63] | > 5000 nM | 
29 | O=C1CCc2c(Oc3ccc4c(c3)[C@H]3[C@H](NC(=O)Nc5ccc(C(F)(F)F)c(F)c5)[C@H]3O4)ccnc2N1 [Compound 1.64] | 27 nM | 
30 | O=C1CCc2c(Oc3ccc4c(c3)[C@H]3[C@H](NC(=O)Nc5cc(C(F)(F)F)cc(C(F)(F)F)c5)[C@H]3O4)ccnc2N1 [Compound 1.65] | 116 nM | 
31 | O=C1CCc2c(Oc3ccc4c(c3)[C@H]3[C@H](NC(=O)NC5CCOCC5)[C@H]3O4)ccnc2N1 [Compound 1.67] | 4.2 nM | 4170 nM
32 | CN1CCC(NC(=O)N[C@@H]2[C@H]3Oc4ccc(Oc5ccnc6c5CCC(=O)N6)cc4[C@@H]23)CC1 [Compound 1.68] | 20 nM | 
33 | O=C1CCc2c(Oc3ccc4c(c3)[C@H]3[C@H](NC(=O)NC5CC5)[C@H]3O4)ccnc2N1 [Compound 1.69] | 30 nM | 
34 | O=C1CCc2c(Oc3ccc4c(c3)[C@@H]3[C@@H](NC(=O)Nc5cc(C(F)(F)F)ccn5)[C@@H]3O4)ccnc2N1 [Compound 1.72] | 1.9 nM | 
35 | CCN1CCN(Cc2ccc(NC(=O)N[C@@H]3[C@H]4Oc5ccc(Oc6ccnc7c6CCC(=O)N7)cc5[C@@H]34)cc2F)CC1 [Compound 1.74] | 821 nM | 
36 | O=C1CCc2c(Oc3ccc4c(c3)[C@H]3C(NC(=O)NCc5ccc(F)cc5C(F)(F)F)[C@H]3O4)ccnc2N1 (some centres unmarked) [Compound 1.76] | 3.4 nM | 1310 nM
37 | CC(C)(C)NC(=O)N[C@@H]1[C@H]2Oc3ccc(Oc4ccnc5c4CCC(=O)N5)cc3[C@@H]12 [Compound 1.77] | 4.5 nM | 4540 nM
38 | CCCCCCNC(=O)N[C@@H]1[C@H]2Oc3ccc(Oc4ccnc5c4CCC(=O)N5)cc3[C@@H]12 [Compound 1.78] | 0.72 nM | 1900 nM
39 | O=C1CCc2c(Oc3ccc4c(c3)[C@H]3[C@H](NC(=O)N[C@H]5CCc6ccccc65)[C@H]3O4)ccnc2N1 [Compound 1.81] | 2.7 nM | 159 nM
40 | O=C1CCc2c(Oc3ccc4c(c3)[C@H]3[C@H](NC(=O)N[C@@H]5CCc6ccccc65)[C@H]3O4)ccnc2N1 [Compound 1.82] | 2.4 nM | 867 nM
41 | CCCCCCCCCCNC(=O)N[C@@H]1[C@H]2Oc3ccc(Oc4ccnc5c4CCC(=O)N5)cc3[C@@H]12 [Compound 1.85] | 129 nM | 
42 | CN1CCN(c2ccc(NC(=O)N[C@@H]3[C@H]4Oc5ccc(Oc6ccnc7c6CCC(=O)N7)cc5[C@@H]34)cc2C(F)(F)F)CC1 [Compound 1.86, 1-(4-(4-methylpiperazin-1-yl)-3-(trifluoromethyl)phenyl)-3-((1S,1aS,6bS)-5-((7-oxo-5,6,7,8-tetrahydro-1,8-naphthyridin-4-yl)oxy)-1a,6b-dihydro-1H-cyclopropa[b]benzofuran-1-yl)urea] | 183 nM | 
43 | CCN1CCN(c2ccc(NC(=O)N[C@@H]3[C@H]4Oc5ccc(Oc6ccnc7c6CCC(=O)N7)cc5[C@@H]34)cc2C(F)(F)F)CC1 [Compound 1.87] | 227 nM | 
44 | O=C(Nc1ccc(F)cc1F)N[C@@H]1[C@H]2Oc3ccc(Oc4ccncn4)cc3[C@@H]12 [Compound 2.1, 1-(2,4-difluorophenyl)-3-((1S,1aS,6bS)-5-(pyrimidin-4-yloxy)-1a,6b-dihydro-1H-cyclopropa[b]benzofuran-1-yl)urea] | 1100 nM | 
45 | O=C(Nc1ccc(F)c(F)c1)N[C@@H]1[C@H]2Oc3ccc(Oc4ccncn4)cc3[C@@H]12 [Compound 2.2] | 111 nM | 
46 | O=C(Nc1ccc(F)c(C(F)(F)F)c1)N[C@@H]1[C@H]2Oc3ccc(Oc4ccncc4)cc3[C@@H]12 [Compound 2.9] | 24 nM | 
47 | O=C(Nc1cc(F)c(F)cc1F)N[C@@H]1[C@H]2Oc3ccc(Oc4ccncc4)cc3[C@@H]12 [Compound 2.10] | 50 nM | 
48 | O=C(Nc1cccc(C(F)(F)F)c1)N[C@@H]1[C@H]2Oc3ccc(Oc4ccncc4)cc3[C@@H]12 [Compound 2.11] | 58 nM | 
49 | O=C(Nc1ccc(F)c(C(F)(F)F)c1)N[C@@H]1[C@H]2Oc3ccc(Oc4ncnc5[nH]cnc45)cc3[C@@H]12 [Compound 2.12, 1-((1S,1aS,6bS)-5-((9H-purin-6-yl)oxy)-1a,6b-dihydro-1H-cyclopropa[b]benzofuran-1-yl)-3-(4-fluoro-3-(trifluoromethyl)phenyl)urea] | 10 nM | 
50 | O=C(Nc1ccc(F)cc1F)N[C@@H]1[C@H]2Oc3ccc(Oc4ncnc5[nH]cnc45)cc3[C@@H]12 [Compound 2.13] | 24 nM | 
51 | Nc1cc(Oc2ccc3c(c2)[C@H]2[C@H](NC(=O)Nc4ccc(F)cc4F)[C@H]2O3)ccn1 [Compound 2.14, 1-((1S,1aS,6bS)-5-((2-aminopyridin-4-yl)oxy)-1a,6b-dihydro-1H-cyclopropa[b]benzofuran-1-yl)-3-(2,4-difluorophenyl)urea] | 36 nM | 
52 | CNC(=O)c1cc(Oc2ccc3c(c2)[C@H]2[C@H](NC(=O)Nc4ccc(Cl)c(C(F)(F)F)c4)[C@H]2O3)ccn1 [Compound 2.16] | 88 nM | 

From patent US9670203B2 (BeiGene, LTD., priority 2013, dated 2017)
